According to patent US20220332737A1, “CARBOCYCLIC NUCLEOSIDE ANALOGUE” (Ludwig-Maximilians-Universität München, priority 2019, published 2022):
Entries after “also recorded” stand apart in the source; their conditions may differ. Where two headings read alike, the source gives them in different places.

Experiments:
[1] = test system: mouse embryonic stem cells (mESC); conditions: from reference [19], cited from earlier work
[2] = Test for hydrolytic stability in KH2PO4 buffer (HPLC); type: physicochemical; conditions: for hydrolytic stability / degradation: aqueous KH2PO4 buffer 100 mM, pH 7.4, 5.5 and 8.5 (all tested pH values), 100 mM compound, r.t.
Method: Both nucleosides were dissolved in aqueous KH2PO4 buffer (100 mM, pH=7.4, 5.5 and 8.5) in 100 mM concentration. The solutions were immediately analysed via HPLC (t=0 h) with subsequent HPLC analyses every 1.5 h or at indicated time points. As stationary phase an EC 250/4 NUCLEOSIL 120-3 C18 (Macherey-Nagel) chromatography column was used. The mobile phase consisted of water (buffer A) and acetonitrile (buffer B) at a flow-rate of 0.5 mL/min as follows: 0→25 min, 0→5% buffer B; 25 min→28 min, 5%→80%; 28 min→38 min, 80%; 38 min→43 min 80%→0%; 43 min→45 min, 0%.
Since one treatment cycle for AzadC goes over four weeks we decided to measure the stability at a time point related to a half cycle (14 d). NMR spectra were measured after keeping the solutions at r.t.

[3] = HPLC stability test of a neutral solution in pure water (FIG. 5); type: physicochemical; conditions: 100 mM solutions in pure water, t=0 h to 6 d
Method: FIG. 5. HPLC investigation of a neutral solution of Decitabine 1 (left) versus the carbacyclic compound cAzaC 20 (right). 100 mM solutions of the compounds were kept in pure water and tested at t=0 h, 1.5 h, 3 h, 4.5 h, 6 h, 24 h, 6 d.

[4] = test system: mouse embryonic stem cells (mESC); assay: Treatment of primed mESC, UHPLC-MS2 quantification of genome incorporation and mdC/hmdC levels; type: cell-based; conditions: for level incorporated into the genome: primed mESC
Method: Feeder independent wt J1 (strain 129S4/SvJae) cells were cultured in the presence of serum and LIF as previously described. They were routinely maintained on gelatinized plates in 2i/L medium. For priming experiments, 2i cultures were passaged when applicable in DMEM supplemented with FBS and LIF as above but lacking the inhibitors. For drug treatment, cells were moved into the primed state by removing 2i from the medium. Cells were incubated 2 d in DMEM supplemented with FBS and LIF in 6-well plates (VWR). After splitting, 2×10^5 cells were transferred into a 6-well plate culture dish and supplemented with either 1 μM (in 0.01% DMSO) or 5 μM cAzadC (in 0.05% DMSO) and treated for 72 h. After removal of the medium and washing the cells with DPBS, they were directly lysed with RLT^+ buffer as described in a previous publication.
The gDNA was isolated as described previously. The gDNA was directly subjected to a total enzymatic digest and analyzed using UHPLC-MS^2 as described in a previous publication. The external calibration curve was generated by serially diluting pure cAzadC [20 pmol, 10 pmol, 5 pmol, 2.5 pmol, 1.25 pmol, 0.625 pmol, 0.3125 pmol] and measuring it in technical triplicates prior to each measurement. Linear regression was done by OriginPro 2016G.
We investigated if the disarming effect described in Example 3 would influence the biological functions. We used for this purpose mouse embryonic stem cells (mESC) that were primed in serum/Lif as a model system, since mdC levels increase from naïve to primed state. We added cAzadC 1 in two different concentrations (1 μM and 5 μM) to mESC that have been primed for 48 h and allowed the cells to further proliferate under priming conditions in the presence of cAzadC 1 for additional 72 h. After the 72 h, we harvested the cells, isolated the DNA and digested the DNA down to the nucleoside level using our described protocol.
The levels of mdC were finally precisely quantified using isotope dilution UHPLC-MS^2. To this end, isotopically labelled standards of the nucleosides were spiked-in for exact quantification. In addition to mdC, we quantified the levels of 5-hydroxymethyl-2′-deoxycytidine (hmdC), which is formed from mdC by the action of TET enzymes. The absolute levels of hmdC are in mESC more than ten times lower than the mdC levels. The consequence is that even after a substantial reduction of mdC, there should be sufficient mdC to keep the hmdC levels constant. The question if and by how much the hmdC level is affected can therefore inform us about how epigenetic reprogramming is organized.
Parallel to the quantification of mdC and hmdC we also quantified to which extend cAzadC 1 itself was incorporated into the genome of the mESC. Detection of AzadC in the genome of treated cells is only possible after treatment of the DNA with NaBH4. Application of NaBH4 reduces the C(5)=C(6) double bond, which stabilizes the compound so that its quantification becomes possible. To our delight, we noted that the stability of cAzadC 1 allowed its quantification without this pre-treatment. We also noted that the applied enzymatic digestion protocol allowed to digest genomic DNA (gDNA) even in the presence of large amounts of cAzadC 1. Taken together, quantification of cAzadC 1 by UHPLC-MS^2 using an external calibration curve was possible in parallel to quantification of canonical and epigenetic bases.

SMILES: Nc1ncn([C@H]2C[C@H](O)[C@@H](CO)O2)c(=O)n1 [AzadC, 5-Aza-2′-deoxycytidine]
- decrease of mdC to % of the original value ([1]; 24 h, 1 μM): 50%
- level incorporated into the genome ([1]; applied with 1 μM): 1.2×10^−3 AzadC per dN
- hydrolytic stability / degradation ([2]; 14 d): strongly degraded; also recorded: severe hydrolytic decomposition
- intact compound remaining ([2]; pH=5.5, 14 d): only hardly detectable
- intact compound remaining ([2]; pH=8.5, 14 d): only hardly detectable
- intact compound remaining / degradation ([2]; physiological pH (7.4), 14 d): still present after 14 d but the level of degradation is dramatic

SMILES: Nc1ncn([C@@H]2C[C@H](CO)[C@@H](O)[C@H]2O)c(=O)n1 [cAzaC 20, 4-Amino-1-[(1′R,2′S,3′R,4′R)-2′,3′-bishydroxy-4′-(hydroxymethyl) -cyclopentyl]-1H-[1,3,5]-triazin-2-one]
- stability compared with decitabine [3]: much more stable

SMILES: Nc1ncn([C@@H]2C[C@H](CO)[C@@H](O)C2)c(=O)n1 [cAzadC 1, 4-Amino-1-[(1′R,3′S,4′R)-3′-hydroxy-4′-(hydroxymethyl)-cyclopentyl]-1H -[1,3,5]triazin-2-one]
- hydrolytic stability / degradation ([2]; 14 d): no degradation; also recorded: stable at all three pH values
- hmdC levels reduced to ([4]; 1 μM, 72 h): about 50%
- nucleotides integrated into the genome ([4]; 1 μM, 72 h): ~3 million
- level incorporated into the genome ([4]; 1 μM, 72 h): 5×10^−4 cAzadC per dN
- incorporated level relative to the AzadC level ([4]; 1 μM, compared with AzadC at 1 μM [19]): about a third
- increase of incorporated level, 5 μM versus 1 μM ([4]; 5 μM versus 1 μM): 3 fold
- nucleotides integrated per genome ([4]; 5 μM, 72 h): more than 8 million
- hmdC detection ([4]; 5 μM, 72 h, 0.5 μg of genomic DNA): unable to detect hmdC above background levels
- level incorporated into the genome ([4]; 5 μM, 72 h): 1.7×10^−3 cAzadC per dN
- mdC levels, of the original value ([4]; 72 h at 5 µM concentration in the medium): about 50%
- reduction of the mdC values ([4]; 72 h at 1 M cAzadC in the medium): ~30%
- mdC level relative to the control levels ([4]; summary, concentration not given): 70%
